Source: the NIST ThermoML archive (doi:10.1016/j.tca.2008.03.009)
± gives the expanded uncertainty stated by the source.

Test: molar heat capacity at constant pressure
Settings: 328.1 K; 101.33 kPa; Crystal; Small sample (50 mg) DSC

[BH4-].[Na+] [sodium tetrahydroborate]
molar heat capacity at constant pressure: 111.61 ± 2.3 J/K/mol
